Measurements reported in patent US7625917B2, “Thiolesters and uses thereof” (priority 1998, dated 2009).

Legend:
[1] = test system: HIV-1 virus; assay: Virus inactivation by PCR assay of treated virions; assay type: cell-based
Text: The thiolester-treated virions can also be tested for infectivity. The virions are suspended in media (rather than solubilized) and added to target cells. The cultures are then examined to determine whether the virions are still active. To determine whether the treated virus particles are active, the cells are monitored for the presence of intracellularly-synthesized viral RNA using, for example, the polymerase chain reaction (PCR) (Rice (1993) Proc. Natl. Acad. Sci. USA 90:9721;Turpin (1996) J. Virol. 70:6180). Alternatively, cytoprotection assays can be used (Weislow (1993) J. Natl. Cancer Inst. 81:577).
An example of a compound which can be used as a control in the gel mobility shift assay is azodicarbonamide (ADA), a compound which is commercially available from the Aldrich Chemical Company (Milwaukee, Wis.).

[2] = target: T1, Virion-associated NCp7 proteins from cell-free HIV-1MN (Human immunodeficiency virus type 1 group M subtype B, UniProt P05888); assay: Virion NCp7 cross-linking (non-reducing Western blotting)
T1 construct: attack on the mature NCp7 retroviral zinc fingers in the cell-free virus; endogenous in cells
Procedure: The interaction of zinc finger inhibitors, such as the thiolesters of the invention, with cell-free virus can result in modification of intravirion NCp7 protein and loss of infectivity. Virion-associated NCp7 proteins from cell-free HIV-1MN were treated with thiolester compounds 44 and 45. They were also evaluated by non-reducing Western blotting using HIV-1 NCp7-specific antibodies. […] Cross-linking by compound 45 was due to formation of intermolecular disulfide bonds because reduction with 2-mercaptoethanol (β-ME) completely reversed the gel retardation.
Virion cross linking was performed as described by Rice (1995) Science 270:1194-1197 and Turpin (1997) Antiviral Chem. Chemother. 8:60-67. Briefly, highly purified HIV-1MN (11.8 μg total protein) was incubated for 2 hour with concentrations of compound. Virions were concentrated and residual compound was removed by centrifugation (18,000×g, 1 h, 4° C.). The viral pellet was solubilized in 0.5 M Tris-HCl, (pH 6.8), 50% glycerol, 8% SDS and 0.4% bromophenol blue and proteins resolved by Western blotting. Western blotting to detect the expression of HIV-1 proteins in U1 cells or virus pellets for virion cross-linking experiments was carried out as described by Turpin (1996) J. Virol. 70:6180-6189. Briefly, 50 μg of total cellular protein for U1 experiments or the. total virion pellet (11.8 μg total viral protein) for NCp7 cross linking studies was resolved on 4 to 20% polyacrylamide gels in SDS with Tris-Glycine (Novex, San Diego Calif.). Samples for reduced gels were boiled for 5 min in the presence of 5% β-ME prior to loading. Resolved proteins were electroblotted on to polyvinylidene difluoride (PVDF) membranes, and HIV-1 specific proteins were detected using a mixture of goat anti-HIV-1 NCp7 and p24 or anti-NCp7 for virion proteins alone (a kind gift of L. E. Henderson, AIDS Vaccine Program NCI-FCRDC, Frederick, Md.). Western blots were developed using standard chemiluminescence methodologies, as produced and described by Dupont-NEN, Wilmington, Del.
Purified concentrated retrovirus and antisera against the purified NC protein of the virus can be used to test the ability of a specific compound to penetrate the virus and react with the NC protein by forming disulfide complexes in the core of the virus. Compound are mixed with the whole retrovirus under reaction conditions appropriate for the compound. The virus is then removed from the reagent by centrifugation and disrupted in, e.g., standard SDS-PAGE sample buffer with (reduced) and without (non-reduced) 2-mercaptoethanol. The viral proteins are then separated by standard SDS-PAGE and the sample examined for the presence or absence of the monomeric zinc finger protein in the non-reduced sample. Depending upon the virus used in the experiment and the conditions of electrophoresis, the zinc finger protein can be visualized by protein staining methods, or by immuno-blot methods. Compounds which react with the zinc finger protein by attacking the zinc finger complexes and forming disulfide cross-linked products inactivate the virus. Thus, compounds of interest (i.e., those which cause cross-linking), including the thiolesters of the invention, reduce the amount of monomeric zinc finger protein detected.

Structure (SMILES) | inactivation of HIV-1 virus (in words) [1] | intravirion NCp7 cross-linking (in words) [2]
NC(=O)N=NC(N)=O [ADA, azodicarbonamide] | inactivates HIV-1 virus | 
Cc1cn([C@H]2C[C@H](N=[N+]=[N-])[C@@H](CO)O2)c(=O)[nH]c1=O [AZT, 3′-Azido-2′-3′-dideoxythymidine, reference compound] |  | failed to cross-link NCp7
